Measurements taken from patent publication US10760110B2, “Antibiotic testing and screening system” (priority 2017, dated 2020).
Converted amounts (≈) assume the structure as drawn. Read-outs that look alike come from different tables or passages of the source.

How the values were obtained:
Conditions in all cases: Klebsiella pneumoniae
[1] = test system: K. pneumoniae NVT1001 and its ΔompK35/36 and/or ΔramR mutants; assay: Etest MIC, OmpK35/36 loss and AcrAB-TolC overexpression (ΔramR) strains (Table 6); assay type: cell-based, Klebsiella pneumoniae
How it was run: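 Etest MICs against K. pneumoniae NVT1001 and its ΔompK35/36 and/or ΔramR mutants, rounded up to the next two-fold value. For NVT1001 carrying pACYC177-blaOXA-48, ceftazidime and cefotaxime MICs by CLSI broth microdilution, interpreted with CLSI 2017 breakpoints.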

[2] = test system: K. pneumoniae NVT1001 strains with carbapenemase plasmids; assay: Etest MIC of β-lactams, OmpK35/36 loss, ΔramR and/or carbapenemase (Table 9); assay type: cell-based, Klebsiella pneumoniae
How it was run: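 Etest MICs, with values between standard dilutions rounded up to the next two-fold step, were measured in K. pneumoniae NVT1001 carrying PCR-cloned resistance genes on pACYC177 or pACYC184 plasmids. Interpretation used CLSI 2017 breakpoints, CLSI 2015 for cephalothin and EUCAST 2017 for moxifloxacin. For the blaOXA-48 strain, ceftazidime and cefotaxime were additionally tested by CLSI broth microdilution.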

[3] = test system: K. pneumoniae NVT1001 ΔramRΔompK35/36 mutant and its revertants; assay: Etest MIC, ΔramRΔompK35/36 mutant and its revertants (Table 7); assay type: cell-based

`CC(C)(O/N=C(\C(=O)N[C@@H]1C(=O)N2C(C(=O)[O-])=C(C[n+]3ccccc3)CS[C@H]12)c1csc(N)n1)C(=O)O` [Ceftazidime] gave an MIC ([1]; WT, NVT1001, read-out: MIC) of 0.25 µg/mL (≈ 0.457 µM), an MIC ([1]; Δ35, ΔompK35 mutant) of 0.5 µg/mL (≈ 0.915 µM) and an MIC ([1]; Δ35/36, ΔompK35/36 mutant) of 1 µg/mL (≈ 1.83 µM). For the same molecule, the MIC ([1]; Δ36, ΔompK36 mutant) was 0.5 µg/mL (≈ 0.915 µM), the MIC ([1]; ΔramR mutant) was 2 µg/mL (≈ 3.66 µM) and the MIC ([1]; ΔramRΔ35, ΔramRΔompK35 mutant) was 2 µg/mL (≈ 3.66 µM). It also gave an MIC ([1]; ΔramRΔ35/36, ΔramRΔompK35/36 mutant) of 2 µg/mL (≈ 3.66 µM), an MIC ([1]; ΔramRΔ36, ΔramRΔompK36 mutant) of 2 µg/mL (≈ 3.66 µM) and an MIC ([2]; IMP-8 on pACYC177, WT (NVT1001), read-out: MIC) greater than 256 µg/mL. For the same molecule, the MIC ([2]; IMP-8 on pACYC177, Δ35 (ΔompK35 mutant)) was greater than 256 µg/mL, the MIC ([2]; IMP-8 on pACYC177, Δ35/36 (ΔompK35/36 mutant)) was greater than 256 µg/mL and the MIC ([2]; IMP-8 on pACYC177, Δ36 (ΔompK36 mutant)) was greater than 256 µg/mL. The MIC ([2]; IMP-8 on pACYC177, ΔramR mutant) was greater than 256 µg/mL, the MIC ([2]; IMP-8 on pACYC177, ΔramRΔ35 (ΔramRΔompK35 mutant)) was greater than 256 µg/mL and the MIC ([2]; IMP-8 on pACYC177, ΔramRΔ35/36 (ΔramRΔompK35/36 mutant)) was greater than 256 µg/mL. The MIC ([2]; IMP-8 on pACYC177, ΔramRΔ36 (ΔramRΔompK36 mutant)) was greater than 256 µg/mL, the MIC ([2]; KPC-2 on pACYC177, WT (NVT1001), read-out: MIC) was 16 µg/mL and the MIC ([2]; KPC-2 on pACYC177, Δ35 (ΔompK35 mutant)) was 64 µg/mL. It also gave an MIC ([2]; KPC-2 on pACYC177, Δ35/36 (ΔompK35/36 mutant)) of 256 µg/mL, an MIC ([2]; KPC-2 on pACYC177, Δ36 (ΔompK36 mutant)) of 32 µg/mL and an MIC ([2]; KPC-2 on pACYC177, ΔramR mutant) of 128 µg/mL. The MIC ([2]; KPC-2 on pACYC177, ΔramRΔ35 (ΔramRΔompK35 mutant)) was 128 µg/mL, the MIC ([2]; KPC-2 on pACYC177, ΔramRΔ35/36 (ΔramRΔompK35/36 mutant)) was 128 µg/mL and the MIC ([2]; KPC-2 on pACYC177, ΔramRΔ36 (ΔramRΔompK36 mutant)) was 128 µg/mL. It also gave an MIC ([2]; KPC-3 on pACYC177, WT (NVT1001), read-out: MIC) of 128 µg/mL, an MIC ([2]; KPC-3 on pACYC177, Δ35 (ΔompK35 mutant)) greater than 256 µg/mL and an MIC ([2]; KPC-3 on pACYC177, Δ35/36 (ΔompK35/36 mutant)) greater than 256 µg/mL. It also gave an MIC ([2]; KPC-3 on pACYC177, Δ36 (ΔompK36 mutant)) of 128 µg/mL, an MIC ([2]; KPC-3 on pACYC177, ΔramR mutant) greater than 256 µg/mL and an MIC ([2]; KPC-3 on pACYC177, ΔramRΔ35 (ΔramRΔompK35 mutant)) greater than 256 µg/mL. For the same molecule, the MIC ([2]; KPC-3 on pACYC177, ΔramRΔ35/36 (ΔramRΔompK35/36 mutant)) was greater than 256 µg/mL, the MIC ([2]; KPC-3 on pACYC177, ΔramRΔ36 (ΔramRΔompK36 mutant)) was greater than 256 µg/mL and the MIC ([2]; NDM-1 on pACYC177, WT (NVT1001), read-out: MIC) was greater than 256 µg/mL. The MIC ([2]; NDM-1 on pACYC177, Δ35 (ΔompK35 mutant)) was greater than 256 µg/mL, the MIC ([2]; NDM-1 on pACYC177, Δ35/36 (ΔompK35/36 mutant)) was greater than 256 µg/mL and the MIC ([2]; NDM-1 on pACYC177, Δ36 (ΔompK36 mutant)) was greater than 256 µg/mL. For the same molecule, the MIC ([2]; NDM-1 on pACYC177, ΔramR mutant) was greater than 256 µg/mL, the MIC ([2]; NDM-1 on pACYC177, ΔramRΔ35 (ΔramRΔompK35 mutant)) was greater than 256 µg/mL and the MIC ([2]; NDM-1 on pACYC177, ΔramRΔ35/36 (ΔramRΔompK35/36 mutant)) was greater than 256 µg/mL. The MIC ([2]; NDM-1 on pACYC177, ΔramRΔ36 (ΔramRΔompK36 mutant)) was greater than 256 µg/mL, the MIC ([2]; OXA-48 on pACYC177, WT (NVT1001), read-out: MIC) was 0.5 µg/mL and the MIC ([2]; OXA-48 on pACYC177, Δ35 (ΔompK35 mutant)) was 1 µg/mL. The MIC ([2]; OXA-48 on pACYC177, Δ35/36 (ΔompK35/36 mutant)) was 2 µg/mL, the MIC ([2]; OXA-48 on pACYC177, Δ36 (ΔompK36 mutant)) was 0.5 µg/mL and the MIC ([2]; OXA-48 on pACYC177, ΔramR mutant) was 2 µg/mL. It also gave an MIC ([2]; OXA-48 on pACYC177, ΔramRΔ35 (ΔramRΔompK35 mutant)) of 2 µg/mL, an MIC ([2]; OXA-48 on pACYC177, ΔramRΔ35/36 (ΔramRΔompK35/36 mutant)) of 2 µg/mL and an MIC ([2]; OXA-48 on pACYC177, ΔramRΔ36 (ΔramRΔompK36 mutant)) of 2 µg/mL. For the same molecule, the MIC ([2]; VIM-1 on pACYC177, WT (NVT1001), read-out: MIC) was greater than 256 µg/mL, the MIC ([2]; VIM-1 on pACYC177, Δ35 (ΔompK35 mutant)) was greater than 256 µg/mL and the MIC ([2]; VIM-1 on pACYC177, Δ35/36 (ΔompK35/36 mutant)) was greater than 256 µg/mL. For the same molecule, the MIC ([2]; VIM-1 on pACYC177, Δ36 (ΔompK36 mutant)) was greater than 256 µg/mL, the MIC ([2]; VIM-1 on pACYC177, ΔramR mutant) was greater than 256 µg/mL and the MIC ([2]; VIM-1 on pACYC177, ΔramRΔ35 (ΔramRΔompK35 mutant)) was greater than 256 µg/mL. For the same molecule, the MIC ([2]; VIM-1 on pACYC177, ΔramRΔ35/36 (ΔramRΔompK35/36 mutant)) was greater than 256 µg/mL, the MIC ([2]; VIM-1 on pACYC177, ΔramRΔ36 (ΔramRΔompK36 mutant)) was greater than 256 µg/mL and the MIC ([2]; no supplemental plasmid, WT (NVT1001), read-out: MIC) was 0.25 µg/mL. The MIC ([2]; no supplemental plasmid, Δ35 (ΔompK35 mutant)) was 0.5 µg/mL, the MIC ([2]; no supplemental plasmid, Δ35/36 (ΔompK35/36 mutant)) was 1 µg/mL and the MIC ([2]; no supplemental plasmid, Δ36 (ΔompK36 mutant)) was 0.5 µg/mL. It also gave an MIC ([2]; no supplemental plasmid, ΔramR mutant) of 2 µg/mL, an MIC ([2]; no supplemental plasmid, ΔramRΔ35 (ΔramRΔompK35 mutant)) of 2 µg/mL and an MIC ([2]; no supplemental plasmid, ΔramRΔ35/36 (ΔramRΔompK35/36 mutant)) of 2 µg/mL. For the same molecule, the MIC ([2]; no supplemental plasmid, ΔramRΔ36 (ΔramRΔompK36 mutant)) was 2 µg/mL, the MIC ([3]; ΔramRΔompK35/36::ompK35/36 revertant) was 2 µg/mL and the MIC ([3]; ΔramRΔompK35/36::ompK35 revertant) was 2 µg/mL. For the same molecule, the MIC ([3]; ΔramRΔompK35/36::ompK36 revertant) was 2 µg/mL, the MIC ([3]; ΔramRΔompK35/36::ramR revertant) was 1 µg/mL and the MIC ([3]; ΔramRΔompK35/36::ramR::ompK35/36 revertant) was 0.25 µg/mL. It also gave an MIC ([3]; ΔramRΔompK35/36::ramR::ompK35 revertant) of 0.25 µg/mL, an MIC ([3]; ΔramRΔompK35/36::ramR::ompK36 revertant) of 1 µg/mL and an MIC ([3]; ΔramRΔompK35/36 mutant) of 2 µg/mL.
